Laboratory results from US20250388544A1, “HETEROAROMATIC INHIBITORS OF ASTACIN PROTEINASES” (VIVORYON THERAPEUTICS N.V., priority 2019, published 2025).

Experiments:
Assay type in all cases: biochemical
hMeprin β [1] = target: T1, hMeprin β (Homo sapiens, UniProt Q16820); test: Enzymatic assay, quenched peptide substrate cleavage, method A; conditions: geometric mean (geometric SD factor in parentheses), read-out: Meprin beta IC50
T1 sequence (Q16820 62-701): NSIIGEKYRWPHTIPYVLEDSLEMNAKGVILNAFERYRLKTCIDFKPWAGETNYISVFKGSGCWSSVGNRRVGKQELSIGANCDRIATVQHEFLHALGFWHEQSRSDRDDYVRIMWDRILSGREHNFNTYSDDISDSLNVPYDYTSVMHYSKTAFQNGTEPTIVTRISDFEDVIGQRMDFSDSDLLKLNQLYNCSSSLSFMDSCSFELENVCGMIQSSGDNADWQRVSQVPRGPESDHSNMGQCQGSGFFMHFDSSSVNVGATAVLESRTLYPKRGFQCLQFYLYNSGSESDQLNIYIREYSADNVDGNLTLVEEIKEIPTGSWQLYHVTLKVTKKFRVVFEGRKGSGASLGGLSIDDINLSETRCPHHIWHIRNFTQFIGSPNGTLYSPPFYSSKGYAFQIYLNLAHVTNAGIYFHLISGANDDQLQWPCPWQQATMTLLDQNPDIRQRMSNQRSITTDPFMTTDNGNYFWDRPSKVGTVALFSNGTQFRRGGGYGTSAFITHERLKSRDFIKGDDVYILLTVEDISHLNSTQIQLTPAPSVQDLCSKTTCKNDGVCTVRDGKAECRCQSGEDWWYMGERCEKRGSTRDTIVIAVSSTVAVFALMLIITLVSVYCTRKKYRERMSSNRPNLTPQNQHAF
Method: (§1) The determination of enzymatic activity was based on the cleavage of internally quenched peptide substrates. A typical assay of 250 μl total volume measured in black 96 well plates consisted of 100 μl buffer, 50 μl enzyme at a final concentration of 5e-8 M to 2e-10 M, 50 μl substrate (0.15 to 80 μM, in buffer, 0.5% DMSO) and 50 μl inhibitor solution (in buffer, 1% DMSO). In case of 125 μl assay volume (black 96 half area well plates) all volumes were cut in half. Enzymatic activity of ADAMs was measured in 384 well plates with 60 μl total assay volume consisting of 20 μl inhibitor, 20 μl buffer, 10 μl enzyme and 10 μl substrate.
(§2) Based on method B Ki^(app) values were determined using Morrison's equation. All measurements were performed using a fluorescence plate reader (FLUOSTAR OPTIMA, BMG Labtech) at 30° C. The kinetic parameters were determined at least in duplicates on separate days. The excitation/emission wavelength was 340/420 nm. The kinetic data was evaluated using GRAFIT software (version 7.0.3, Erithacus Software).

hMeprin α [2] = target: T2, hMeprin α (Homo sapiens, UniProt Q16819); test: as above; conditions: geometric mean (geometric SD factor in parentheses), read-out: Meprin alpha IC50
T2 sequence (Q16819 66-746): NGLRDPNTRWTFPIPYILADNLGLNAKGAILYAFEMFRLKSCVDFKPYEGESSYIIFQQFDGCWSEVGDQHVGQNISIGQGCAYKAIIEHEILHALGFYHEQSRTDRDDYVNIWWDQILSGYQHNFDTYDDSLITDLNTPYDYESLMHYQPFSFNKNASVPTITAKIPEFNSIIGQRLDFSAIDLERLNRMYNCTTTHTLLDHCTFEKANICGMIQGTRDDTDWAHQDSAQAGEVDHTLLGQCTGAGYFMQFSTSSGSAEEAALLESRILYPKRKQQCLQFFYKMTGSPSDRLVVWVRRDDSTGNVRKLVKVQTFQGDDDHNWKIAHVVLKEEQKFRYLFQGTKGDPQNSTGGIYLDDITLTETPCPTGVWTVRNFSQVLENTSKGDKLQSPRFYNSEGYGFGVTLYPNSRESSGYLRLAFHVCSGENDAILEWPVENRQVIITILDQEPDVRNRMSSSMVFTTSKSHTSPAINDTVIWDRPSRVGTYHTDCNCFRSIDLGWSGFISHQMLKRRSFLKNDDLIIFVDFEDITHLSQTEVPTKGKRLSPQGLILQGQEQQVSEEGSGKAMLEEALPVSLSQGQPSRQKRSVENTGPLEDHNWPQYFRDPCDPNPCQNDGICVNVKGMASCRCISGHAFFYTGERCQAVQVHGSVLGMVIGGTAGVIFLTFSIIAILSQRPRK
Method: as §1, §2

hMeprin β [3] = target: T1, hMeprin β; test: Enzymatic assay, quenched peptide substrate cleavage, method B; conditions: geometric mean (geometric SD factor in parentheses); for Ki: Morrison's equation, read-out: Meprin beta Ki(app); for IC50: read-out: Meprin beta IC50
Method: as §1, §2

hMeprin α [4] = target: T2, hMeprin α; test: as above; conditions: geometric mean (geometric SD factor in parentheses); for Ki: Morrison's equation, read-out: Meprin alpha Ki(app); for IC50: read-out: Meprin alpha IC50
Method: as §1, §2

| Structure (SMILES) | IC50 (hMeprin β [1]) [nM] | IC50 (hMeprin α [2]) [nM] | Ki (hMeprin β [3]) [nM] | IC50 (hMeprin β [3]) [nM] | Ki (hMeprin α [4]) [nM] | IC50 (hMeprin α [4]) [nM] |
| --- | --- | --- | --- | --- | --- | --- |
| O=C(CNc1c(-c2ccccc2)nc2ccccn12)NO [Example 29, 2-[(2-Phenylimidazo[1,2-a]pyridin-3-yl)amino]-ethanehydroxamic acid] | 7120 | 793 |  |  |  |  |
| O=C(Cn1nc(-c2ccccc2)cc1-c1ccccc1)NO [Example 5, 2-(3,5-Diphenylpyrazol-1-yl)ethanehydroxamic acid] | 10500 | 292 |  |  |  |  |
| O=C(Cc1c2ccccc2nn1-c1ccccc1)NO [Example 34, 2-(2-Phenylindazol-3-yl)ethanehydroxamic acid] | 3370 | 244 |  |  |  |  |
| O=C(CCn1c(-c2ccccc2)cc2ccccc21)NO [Example 26, 3-(2-Phenylindol-1-yl)propanehydroxamic acid] | 13400 | 475 |  |  |  |  |
| O=C(CCn1c(-c2ccccc2)nc2ccccc21)NO [Example 14, 3-(2-Phenylbenzimidazol-1-yl)propanehydroxamic acid] | 28000 | 1130 | 31700 | 32400 | 701 | 708 |
| O=C(CNc1c(-c2ccc3c(c2)OCCO3)nc2ccccn12)NO [Example 32, 2-[[2-(2,3-Dihydro-1,4-benzodioxin-6-yl)imidazo-[1,2-a]pyridin-3-yl]amino]ethanehydroxamic acid] | 3140 | 655 |  |  |  |  |
| O=C(Cn1c(-c2ccccc2)nc2cccnc21)NO [Example 23, 2-(2-Phenylimidazo[4,5-b]pyridin-3-yl)ethane-hydroxamic acid] | 4560 | 273 |  |  |  |  |
| O=C(CNc1c(-c2ccccc2)nc2c(C(=O)O)cccn12)NO [Example 33, 3-[[2-(Hydroxyamino)-2-oxo-ethyl]amino]-2-phenyl-imidazo[1,2-a]pyridine-8-carboxylic acid] | 3100 | 6740 |  |  |  |  |
| O=C(CCn1c(-c2ccccc2)ccc1-c1ccccc1)NO [Example 10, 3-(2,5-Diphenylpyrrol-1-yl)propanehydroxamic acid] | 15000 | 727 |  |  |  |  |
| O=C(CCn1nc(-c2ccccc2)cc1-c1ccccc1)NO [Example 6, 3-(3,5-Diphenylpyrazol-1-yl)propanehydroxamic acid] | 15400 | 457 |  |  |  |  |

Compounds with a lower IC50 (hMeprin β [1]), results first:

| IC50 (hMeprin β [1]) [nM] | IC50 (hMeprin α [2]) [nM] | Ki (hMeprin β [3]) [nM] | IC50 (hMeprin β [3]) [nM] | Ki (hMeprin α [4]) [nM] | IC50 (hMeprin α [4]) [nM] | Structure (SMILES) |
| --- | --- | --- | --- | --- | --- | --- |
| 1220 | 9 |  |  |  |  | Cn1nc(-c2ccccc2)c(CC(=O)NO)c1-c1ccccc1 [Example 35, 2-(1-Methyl-3,5-diphenyl-pyrazol-4-yl)ethanehydroxamic acid] |
| 1200 | 105 |  |  |  |  | O=C(Cc1c(-c2ccccc2)[nH]c2ccccc12)NO [Example 27, 2-(2-Phenyl-1H-indol-3-yl)ethanehydroxamic acid] |
| 486 | 2 |  |  |  |  | O=C(Cc1c(-c2ccccc2)ncn1-c1ccccc1)NO [Example 12, 2-(3,5-Diphenylimidazol-4-yl)ethanehydroxamic acid] |
| 214 | 693 |  |  |  |  | O=C(CNc1c(-c2cccc(C(=O)O)c2)nc2ccccn12)NO [Example 31, 3-[3-[[2-(Hydroxyamino)-2-oxo-ethyl]amino]-imidazo[1,2-a]pyridin-2-yl]benzoic acid] |
| 176 | 2280 |  |  |  |  | O=C(CNc1c(-c2ccc(C(=O)O)cc2)nc2ccccn12)NO [Example 30, 4-[3-[[2-(Hydroxyamino)-2-oxo-ethyl]amino]-imidazo[1,2-a]pyridin-2-yl]benzoic acid] |
| 154 | 21 |  |  |  |  | O=C(Cc1c(-c2ccccc2)nn(-c2ccc(C(=O)O)cc2)c1-c1ccccc1)NO [Example 37, 4-[4-[2-(Hydroxyamino)-2-oxo-ethyl]-3,5-diphenyl-pyrazol-1-yl]benzoic acid] |
| 100 | 16 |  |  |  |  | O=C(Cc1c(-c2ccccc2)nn(-c2cccc(C(=O)O)c2)c1-c1ccccc1)NO [Example 38, 3-[4-[2-(Hydroxyamino)-2-oxo-ethyl]-3,5-diphenyl-pyrazol-1-yl]benzoic acid] |
| 23 | 135 | 80 | 81 | 90 | 92 | O=C(Cc1c(-c2ccc(Cl)c(O)c2F)nc2ccccn12)NO [Example 28, 2-[2-(4-Chloro-2-fluoro-3-hydroxy-phenyl)imidazo-[1,2-a]pyridin-3-yl]ethanehydroxamic acid] |
